Laboratory results published in patent publication US8802678B2, “Carbonylated (aza) cyclohexanes as dopamine D3 receptor ligands” (Bioprojet, priority 2006, dated 2014).

In the case of `COc1ccccc1N1CCN(CC[C@H]2CC[C@H](NC(=O)CC#N)CC2)CC1` [Example 124, 2-Cyano-N-(4-{2-[4-(2-methoxyphenyl)piperazin-1-yl]ethyl}cyclohexyl)acetamide], the melting point is reported as 187 °C.
With `CC(C)(C)c1nc(N2CCN(CC[C@H]3CC[C@H](NC(=O)CC#N)CC3)CC2)cc(C(F)(F)F)n1` [Example 177, N-(4-{2-[4-(2-tert-Butyl-6-trifluoromethylpyrimidin-4-yl)piperazin-1-yl]ethyl}cyclohexyl)-2-cyanoacetamide trans/cis 85/15] the melting point was 188 °C.
Compound `CCc1ccccc1N1CCN(CC[C@H]2CC[C@H](NC(=O)CC(F)(F)F)CC2)CC1` [Example 422, N-(4-{2-[4-(2-Ethylphenyl)piperazin-1-yl]ethyl}cyclohexyl)-3,3,3-trifluoropropanamide] has a melting point of 135 °C.
Work on `CC(=O)CN1CCC(CCN2CCN(c3cccc(OC(F)(F)F)c3)CC2)CC1.Cl.Cl` yielded a melting point of 275 °C.
`N#CCC(=O)N[C@H]1CC[C@H](CCN2CCN(c3csc4cc(C(F)(F)F)ccc34)CC2)CC1` [Example 173, 2-Cyano-N-(4-{2-[4-(6-trifluoromethylbenzo[b]thiophen-3-yl)piperazin-1-yl]ethyl}cyclohexyl)acetamide] gave a melting point of 216 °C.
With `CC(=O)CN1CCC(CCN2CCN(c3ccc4scnc4c3)CC2)CC1` [Example 264, 1-{4-[2-(4-Benzothiazol-5-ylpiperazin-1-yl)ethyl]piperidin-1-yl}propan-2-one] the melting point was 110 °C.
`O=C(N[C@H]1CC[C@H](CCN2CCN(c3cccc(C(F)(F)F)c3)CC2)CC1)C1=COCC1` [Example 564, 4,5-Dihydrofuran-3-carboxylic acid (4-{2-[4-(3-trifluoromethylphenyl)piperazin-1-yl]ethyl}cyclohexyl) amide] showed a melting point of 175 °C.
For `CSc1cccc(N2CCN(CCC3CCN(CC(C)=O)CC3)CC2)c1` [Example 686, 1-(4-{2-[4-(3-Methylsulfanyl-phenyl)piperazin-1-yl]ethyl}-piperidin-1-yl)propan-2-one], the melting point was 113 °C.
`N#CCC(=O)N[C@H]1CC[C@H](CCN2CCN(c3cccc(Cc4ccccc4)c3)CC2)CC1` [Example 216, N-(4-{2-[4-(3-Benzylphenyl)-piperazin-1-yl]ethyl}cyclohexyl)-2-cyanoacetamide] gave a melting point of 168 °C.
In the case of `N#CCCCC(=O)N[C@H]1CC[C@H](CCN2CCN(c3ccc(F)c(F)c3)CC2)CC1` [Example 357, 4-Cyano-N-(4-{2-[4-(3,4-difluorophenyl)piperazin-1-yl]ethyl}cyclohexyl)butanamide], the melting point is reported as 141 °C.
In the case of `Cl.Cl.O=C(CN1CCC(CCN2CCN(c3cccc(C(F)(F)F)c3)CC2)CC1)c1ccc(F)c(F)c1`, the melting point is reported as 220 °C.
For `CCOCC(=O)N[C@H]1CC[C@H](CCN2CCC(c3cccc(C(F)(F)F)c3)CC2)CC1` [Example 83, 2-Ethoxy-N-(4-{2-[4-(3-trifluoromethylphenyl)piperidin-1-yl]ethyl}cyclohexyl)acetamide], the melting point was 84 °C.
Compound `Cc1ccc(C)c(N2CCN(CC[C@H]3CC[C@H](NC(=O)CC#N)CC3)CC2)c1` [Example 152, 2-Cyano-N-(4-{2-[4-(2,5-dimethylphenyl)piperazin-1-yl]ethyl}cyclohexyl)acetamide] has a melting point of 184 °C.
`O=C(COc1ccccc1)N[C@H]1CC[C@H](CCN2CCN(c3cccc(F)c3)CC2)CC1` [Example 396, N-(4-{2-[4-(3-Fluorophenyl)piperazin-1-yl]ethyl}cyclohexyl)-2-phenoxyacetamide] gave a melting point of 150 °C.
For `O=C(C=C1CCC(CCN2CCN(c3ccccc3F)CC2)CC1)N1CCCC1` (stereo not shown) [Example 301, 2-(4-{2-[4-(2-Fluorophenyl)-piperazin-1-yl]ethyl}cyclohexylidene)-1-pyrrolidin-1-ylethanone], the melting point was 109 to 110 °C.
Work on `N#Cc1cccc(N2CCN(CC[C@H]3CC[C@H](NC(=O)C4=CCCC4)CC3)CC2)c1` [Example 512, Cyclopent-1-enecarboxylic acid (4-{2-[4-(3-cyanophenyl)-piperazin-1-yl]ethyl}cyclohexyl) amide] yielded a melting point of 191 °C.
`CC(=O)CN1CCC(CCN2CCN(c3cc(Cl)cc(C(F)(F)F)c3)CC2)CC1.Cl.Cl` showed a melting point of 289 °C.
`Cc1cc(N2CCN(CC[C@H]3CC[C@H](NC(=O)CC#N)CC3)CC2)c(Cl)cc1F` [Example 389, N-(4-{2-[4-(2-Chloro-4-fluoro-5-methylphenyl)piperazin-1-yl]ethyl}cyclohexyl)-2-cyanoacetamide] showed a melting point of 177 °C.
Compound `CCCOCC(=O)N[C@H]1CC[C@H](CCN2CCN(c3cccc(C(F)(F)F)c3F)CC2)CC1` [Example 516, N-(4-{2-[4-(2-Fluoro-3-trifluoromethylphenyl)piperazin-1-yl]ethyl}cyclohexyl)-2-propoxyacetamide] has a melting point of 102 °C.
Compound `CC(=O)CN1CCC(CCN2CCN(c3cccc(CO)c3)CC2)CC1` [Example 640, 1-(4-{2-[4-(3-Hydroxymethylphenyl)piperazin-1-yl]ethyl}piperidin-1-yl)propan-2-one] has a melting point of 84 °C.
Work on `O=C(N[C@H]1CC[C@H](CCN2CCN(c3ccccc3F)CC2)CC1)C1CCCO1` (stereo partly shown) [Example 57, Tetrahydrofuran-2-carboxylic acid (4-{2-[4-(2-fluorophenyl)piperazin-1-yl]ethyl}cyclohexyl)amide] yielded a melting point of 119 to 120 °C.
In the case of `N#CCC(=O)N[C@H]1CC[C@H](CCN2CCN(c3cccc(C(F)(F)F)c3F)CC2)CC1` [Example 158, 2-Cyano-N-(4-{2-[4-(2-fluoro-3-trifluoromethylphenyl)piperazin-1-yl]ethyl}cyclohexyl)acetamide], the melting point is reported as 194 °C.
`COCCCC(=O)N[C@H]1CC[C@H](CCN2CCN(c3cc(Cl)cc(Cl)c3)CC2)CC1` [Example 691, N-(4-{2-[4-(3,5-Dichlorophenyl)piperazin-1-yl]ethyl}cyclohexyl)-4-methoxybutanamide] showed a melting point of 184 °C.
With `Cc1cccc(N2CCN(CC[C@H]3CC[C@H](NC(=O)CC#N)CC3)CC2)c1` [Example 166, 2-Cyano-N-{4-[2-(4-m-tolylpiperazin-1-yl)ethyl]cyclohexyl}acetamide] the melting point was 175 °C.
In the case of `N#CCCC(=O)N1CCC(CCN2CCN(c3cccc(Cl)c3Cl)CC2)CC1` [Example 733, 4-(4-{2-[4-(2,3-Dichlorophenyl)piperazin-1-yl]ethyl}piperidin-1-yl)-4-oxobutanonitrile], the melting point is reported as 94 °C.
With `Cl.N#CCC(=O)N1CCC(CCN2CCN(c3cccc4c3CCC4)CC2)CC1` the melting point was 210 °C.
`CC(C)(C)c1nc(N2CCN(CC[C@H]3CC[C@H](NC(=O)CCC#N)CC3)CC2)cc(C(F)(F)F)n1` [Example 244] showed a melting point of 151 °C.
With `CCc1cccc(N2CCN(CC[C@H]3CC[C@H](NC(=O)C4=CCCCO4)CC3)CC2)c1` [Example 561, 5,6-Dihydro-4H-pyran-2-carboxylic acid (4-{2-[4-(3-ethylphenyl)piperazin-1-yl]ethyl}cyclohexyl) amide] the melting point was 135 °C.
Work on `O=C(N[C@H]1CC[C@H](CCN2CCN(c3ccccc3)CC2)CC1)C1=CCCCC1` [Example 66, Cyclohex-1-enecarboxylic acid {4-[2-(4-phenylpiperazin-1-yl)ethyl]cyclohexyl}amide trans/cis 90/10] yielded a melting point of 193 °C.
With `COCC(=O)N[C@H]1CC[C@H](CCN2CCN(c3ccccc3F)CC2)CC1` [Example 50, N-(4-{2-[4-(2-Fluorophenyl)-piperazin-1-yl]ethyl}cyclohexyl)-2-methoxyacetamide] the melting point was 143 to 144 °C.
Compound `O=C(N[C@H]1CC[C@H](CCN2CCN(c3ccc(F)cc3F)CC2)CC1)C1=CCCCO1` [Example 565, 5,6-Dihydro-4H-pyran-2-carboxylic acid (4-{2-[4-(2,4-difluorophenyl)piperazin-1-yl]ethyl}cyclohexyl) amide] has a melting point of 160 °C.
For `COc1ccc(Cl)cc1N1CCN(CC[C@H]2CC[C@H](NC(=O)CCCC#N)CC2)CC1` [Example 415, N-(4-{2-[4-(5-Chloro-2-methoxyphenyl)piperazin-1-yl]ethyl}cyclohexyl)-4-cyanobutanamide], the melting point was 152 °C.
Compound `CC(=O)CN1CCC(CCN2CCN(c3cc(F)c(C(F)(F)F)c(F)c3)CC2)CC1.Cl.Cl` has a melting point of 80 °C.
Compound `N#CCCCC(=O)N[C@H]1CC[C@H](CCN2CCN(c3cc(Cl)ccc3F)CC2)CC1` [Example 414, N-(4-{2-[4-(5-Chloro-2-fluorophenyl)piperazin-1-yl]ethyl}cyclohexyl)-4-cyanobutanamide] has a melting point of 165 °C.
`COc1ccc(C)cc1N1CCN(CC[C@H]2CC[C@H](NC(=O)CCCC#N)CC2)CC1` [Example 483, 4-Cyano-N-(4-{2-[4-(2-methoxy-5-methylphenyl)piperazin-1-yl]ethyl}cyclohexyl)butanamide] gave a melting point of 164 °C.
Work on `Cc1cccc(N2CCN(CC[C@H]3CC[C@H](NC(=O)CCCC#N)CC3)CC2)c1` [Example 234, 4-Cyano-N-{4-[2-(4-m-tolylpiperazin-1-yl)ethyl]cyclohexyl}butanamide] yielded a melting point of 150 °C.
`COCCCC(=O)N[C@H]1CC[C@H](CCN2CCN(c3cc(C(F)(F)F)ccc3F)CC2)CC1` [Example 616, N-(4-{2-[4-(2-Fluoro-5-trifluoromethylphenyl)piperazin-1-yl]ethyl}cyclohexyl)-4-methoxybutanamide] showed a melting point of 177 °C.
`N#CCCCC(=O)N[C@H]1CC[C@H](CCN2CCN(c3ccc(Cl)c(C(F)(F)F)c3)CC2)CC1` [Example 756, N-(4-{2-[4-(4-Chloro-3-trifluoromethylphenyl)piperazin-1-yl]ethyl}cyclohexyl)-4-cyanobutanamide] gave a melting point of 126 °C.
With `Cc1cc(Cl)cc(N2CCN(CC[C@H]3CC[C@H](NC(=O)CCCC#N)CC3)CC2)c1` [Example 438, N-(4-{2-[4-(3-Chloro-5-methylphenyl)piperazin-1-yl]ethyl}cyclohexyl)-4-cyanobutanamide] the melting point was 165 °C.
In the case of `CC(=O)CN1CCC(CCN2CCN(c3cccc(Cl)c3)CC2)CC1` [Example 29, 1-(4-{2-[4-(3-Chlorophenyl)-piperazin-1-yl]ethyl}piperidin-1-yl)propan-2-one], the melting point is reported as 114 °C.
In the case of `O=C(N[C@H]1CC[C@H](CCN2CC=C(c3ccccc3F)CC2)CC1)C1=CCCC1`, the melting point is reported as 192 °C.
Compound `CC(=O)c1cccc(N2CCN(CC[C@H]3CC[C@H](NC(=O)CCCC#N)CC3)CC2)c1` [Example 375] has a melting point of 181 °C.
`N#CCC(=O)N[C@H]1CC[C@H](CCN2CC=C(c3ccccc3)CC2)CC1` showed a melting point of 203 °C.
